Reference: patent US11753397B2, “Cereblon binders for the degradation of ikaros” (C4 Therapeutics, Inc., priority 2018, dated 2023)

test system: NCIH929.1 cells; test: Cell viability assay (CellTiter-Glo 2.0, ATP quantification); format: cell-based; conditions: NCIH929.1 cell viability, CellTiter-Glo 2.0, 96 hr incubation, top concentration 1 μM
Protocol: Example 59. Cell Viability Assay
RPMI 1640 medium, fetal bovine serum (FBS) and 2-mercaptoethanol were purchased from Gibco (Grand Island, N.Y., USA). CellTiter-Glo® 2.0 Assay was purchased from Promega (Madison, Wis., USA). NCIH929.1 cell line was purchased from ATCC (Manassas, Va., USA). Cell culture flasks and 384-well microplates were acquired from VWR (Radnor, Pa., USA).
NCIH929.1 cell viability was determined based on quantification of ATP using CellTiter-Glo® 2.0 luminescent Assay kit, which signals the presence of metabolically-active cells. Briefly, the test compound was added to 384-well plates at a top concentration of 1 μM with 10 points, half log titration in duplicates. NCIH929.1 cells were seeded into the 384-well plates in RPMI medium containing 10% FBS and 0.05 mM 2-mercaptoethanol at a cell density of 750 cells per well. Cells treated in the absence of the test compound were the negative control and cells treated in the absence of CellTiter-Glo® 2.0 were the positive control. At the same day of compound treatment, CellTiter-Glo® 2.0 was added to a plate with cells treated in the absence of the test compound to establish Cytostatic control value (CT0). Cells treated with the test compound were incubated at 37° C. with 5% CO2 for 96 hr. CellTiter-Glo reagent was then added to the cells and luminescence was acquired on EnVision™ Multilabel Reader (PerkinElmer, Santa Clara, Calif., USA).

Compound	GI50
[2H][C@@]1(N2C(=O)c3cccc(NCc4cnn(C5CCN(C(=O)OC(C)(C)C)CC5)c4)c3C2=O)CCC(=O)NC1=O (single isomer, unassigned) [Compound 185]	< 100 nM
[2H][C@]1(N2C(=O)c3cccc(NCc4cnn(C5CCN(C(=O)OC(C)(C)C)CC5)c4)c3C2=O)CCC(=O)NC1=O (single isomer, unassigned) [Compound 186]	< 100 nM
CC1(C(=O)N2CCC(n3cc(CNc4cccc5c4C(=O)N(C4CCC(=O)NC4=O)C5=O)cn3)CC2)CC1(Cl)Cl (stereo in doubt) [Compound 182, 4-(((1-(1-((R)-2,2-Dichloro-1-methylcyclopropane-1-carbonyl)piperidin-4-yl)-1H-pyrazol-4-yl)methyl)amino)-2-(2,6-dioxopiperidin-3-yl)isoindoline-1,3-dione]	< 100 nM
CC1(C(=O)N2CCC(n3cc(CNc4cccc5c4C(=O)N(C4CCC(=O)NC4=O)C5=O)cn3)CC2)CC1(Cl)Cl (stereo in doubt) [Compound 183, 4-(((1-(1-((S)-2,2-Dichloro-1-methylcyclopropane-1-carbonyl)piperidin-4-yl)-1H-pyrazol-4-yl)methyl)amino)-2-(2,6-dioxopiperidin-3-yl)isoindoline-1,3-dione]	< 1 nM
COCCC(=O)N1CCC(n2cc(CNc3cccc4c3C(=O)N(C3CCC(=O)NC3=O)C4=O)cn2)CC1 (stereo not drawn) [Compound 6, 2-(2,6-dioxopiperidin-3-yl)-4-(((1-(1-(3-methoxypropanyl)piperidin-4-yl)-1H-pyrazol-4-yl)methyl)amino)isoindoline-1,3-dione]	< 100 nM
O=C1CCC(N2C(=O)c3cccc(NCc4cnn(C5CCN(C(=O)c6cnco6)CC5)c4)c3C2=O)C(=O)N1 (stereo not drawn) [Compound 7, 2-(2,6-dioxopiperidin-3-yl)-4-(((1-(1-(oxazole-5-carbnonyl)piperidin-4-yl)-1H-pyrazol-4-yl)methyl)amino)isoindoline-1,3-dione]	< 100 nM
CC(C)(C)CCC(=O)N1CCC(n2cc(CNc3cccc4c3C(=O)N(C3CCC(=O)NC3=O)C4=O)cn2)CC1 (stereo not drawn) [Compound 8, 4-(((1-(1-(4,4-dimethylpentanoyl)piperidin-4-yl)-1H-pyrazol-4-yl)methyl)amino)-2-(2,6-dioxopiperidin-3-yl)isoindoline-1,3-dione]	< 1 nM
CC(C)C(=O)N1CCC(n2cc(CNc3cccc4c3C(=O)N(C3CCC(=O)NC3=O)C4=O)cn2)CC1 (stereo not drawn) [Compound 9, 2-(2,6-dioxopiperidin-3-yl)-4-(((1-(1-isobutyrylpiperidin-4-yl)-1H-pyrazol-4-yl)methyl)amino)isoindoline-1,3-dione]	< 100 nM
O=C1CCC(N2C(=O)c3cccc(NCc4cnn(C5CCN(C(=O)C(F)F)CC5)c4)c3C2=O)C(=O)N1 (stereo not drawn) [Compound 10, 4-(((1-(1-(2,2-difluoroacetyl)piperidin-4-yl)-1H-pyrazol-4-yl)methyl)amino)-2-(2,6-dioxopiperidin-3-yl)isoindoline-1,3-dione]	< 100 nM
O=C1CCC(N2C(=O)c3cccc(NCc4cnn(C5CCN(C(=O)C6CCOCC6)CC5)c4)c3C2=O)C(=O)N1 (stereo not drawn) [Compound 11, 2-(2,6-dioxopiperidin-3-yl)-4-(((1-(1-(tetrahydro-2H-pyran-4-carbonyl)piperidin-4-yl)-1H-pyrazol-4-yl)methyl)amino)isoindoline-1,3-dione]	< 100 nM
CC(C)(C)CC(=O)N1CCC(n2cc(CNc3cccc4c3C(=O)N(C3CCC(=O)NC3=O)C4=O)cn2)CC1 (stereo not drawn) [Compound 12, 4-(((1-(1-(3,3-dimethylbutanoyl)piperidin-4-yl)-1H-pyrazol-4-yl)methyl)amino)-2-(2,6-dioxopiperidin-3-yl)isoindoline-1,3-dione]	< 100 nM
CCC(C)C(=O)N1CCC(n2cc(CNc3cccc4c3C(=O)N(C3CCC(=O)NC3=O)C4=O)cn2)CC1 (stereo not drawn) [Compound 13, 2-(2,6-dioxopiperidin-3-yl)-4-(((1-(1-(2-methylbutanoyl)piperidin-4-yl)-1H-pyrazol-4-yl)methyl)amio)isoindoline-1,3-dione]	< 100 nM
O=C1CCC(N2C(=O)c3cccc(NCc4cnn(C5CCN(C(=O)C6CCC6)CC5)c4)c3C2=O)C(=O)N1 (stereo not drawn) [Compound 14, 4-(((1-(1-(cyclobutanecarbonyl)piperidin-4-yl)-1H-pyrazol-4-yl)methyl)amino)-2-(2,6-dioxopiperidin-3-yl)isoindoline-1,3-dione]	< 100 nM
CO[C@H]1CC[C@H](C(=O)N2CCC(n3cc(CNc4cccc5c4C(=O)N(C4CCC(=O)NC4=O)C5=O)cn3)CC2)CC1 (stereo partly drawn) [Compound 15, 2-(2,6-dioxopiperidin-3-yl)-4-(((1-(1-((1r,4r)-4-methoxycyclohexane-1-carbonyl)piperidin-4-yl)-1H-pyrazol-4-yl)methyl)amino)isoindoline-1,3-dione]	< 100 nM
O=C1CCC(N2C(=O)c3cccc(NCc4cnn(C5CCN(C(=O)c6ccccc6)CC5)c4)c3C2=O)C(=O)N1 (stereo not drawn) [Compound 16, 4-(((1-(1-benzoylpiperidin-4-yl)-1H-pyrazol-4-yl)methyl)amino)-2-(2,6-dioxopiperidin-3-yl)isoindoline-1,3-dione]	< 100 nM
CCOCC(=O)N1CCC(n2cc(CNc3cccc4c3C(=O)N(C3CCC(=O)NC3=O)C4=O)cn2)CC1 (stereo not drawn) [Compound 17, 2-(2,6-dioxopiperidin-3-yl)-4-(((1-(1-(2-ethoxyacetyl)piperidin-4-yl)-1H-pyrazol-4-yl)methyl)amino)isoindoline-1,3-dione]	< 100 nM
O=C1CCC(N2C(=O)c3cccc(NCc4cnn(C5CCN(C(=O)Cn6cccn6)CC5)c4)c3C2=O)C(=O)N1 (stereo not drawn) [Compound 18, 4-(((1-(1-(2-(1H-pyrazol-1-yl)acetyl)piperidin-4-yl)-1H-pyrazol-4-yl)methyl)amino)-2-(2,6-dioxopiperidin-3-yl)isoindoline-1,3-dione]	< 100 nM
N#CCC(=O)N1CCC(n2cc(CNc3cccc4c3C(=O)N(C3CCC(=O)NC3=O)C4=O)cn2)CC1 (stereo not drawn) [Compound 19, 3-(4-(4-(((2-(2,6-dioxopiperidin-3-yl)-1,3-dioxoisoindolin-4-yl)amino)methyl)-1H-pyrazol-1-yl)piperidin-1-yl)-3-oxopropanenitrile]	< 100 nM
O=C1CCC(N2C(=O)c3cccc(NCc4cnn(C5CCN(C(=O)CC6CCCC6)CC5)c4)c3C2=O)C(=O)N1 (stereo not drawn) [Compound 20, 4-(((1-(1-(2-cyclopentylacetyl)piperidin-4-yl)-1H-pyrazol-4-yl)methyl)amino)-2-(2,6-dioxopiperidin-3-yl)isoindoline-1,3-dione]	< 100 nM
O=C1CCC(N2C(=O)c3cccc(NCc4cnn(C5CCN(C(=O)CCC6CC6)CC5)c4)c3C2=O)C(=O)N1 (stereo not drawn) [Compound 21, 4-(((1-(1-(3-cyclopropylpropanoyl)piperidin-4-yl)-1H-pyrazol-4-yl)methyl)amino)-2-(2,6-dioxopiperidin-3-yl)isoindoline-1,3-dione]	< 100 nM
O=C1CCC(N2C(=O)c3cccc(NCc4cnn(C5CCN(C(=O)C6CCCCC6)CC5)c4)c3C2=O)C(=O)N1 (stereo not drawn) [Compound 22, 4-(((1-(1-(cyclohexanecarbonyl)piperidin-4-yl)-1H-pyrazol-4-yl)methyl)amino)-2-(2,6-dioxopiperidin-3-yl)isoindoline-1,3-dione]	< 100 nM
CC(C)CCC(=O)N1CCC(n2cc(CNc3cccc4c3C(=O)N(C3CCC(=O)NC3=O)C4=O)cn2)CC1 (stereo not drawn) [Compound 23, 2-(2,6-dioxopiperidin-3-yl)-4-(((1-(1-(4-methylpentanoyl)piperidin-4-yl)-1H-pyrazol-4-yl)methyl)amino)isoindoline-1,3-dione]	< 1 nM
O=C1CCC(N2C(=O)c3cccc(NCc4cnn(C5CCN(C(=O)C6CC6)CC5)c4)c3C2=O)C(=O)N1 (stereo not drawn) [Compound 24, 4-(((1-(1-(cyclopropanecarbonyl)piperidin-4-yl)-1H-pyrazol-4-yl)methyl)amino)-2-(2,6-dioxopiperidin-3-yl)isoindoline-1,3-dione]	< 100 nM
O=C1CCC(N2C(=O)c3cccc(NCc4cnn(C5CCN(C(=O)Cc6ccc(F)cc6)CC5)c4)c3C2=O)C(=O)N1 (stereo not drawn) [Compound 25, 2-(2,6-dioxopiperidin-3-yl)-4-(((1-(1-(2-(4-fluorophenyl)acetyl)piperidin-4-yl)-1H-pyrazol-4-yl)methyl)amino)isoindoline-1,3-dione]	< 100 nM
O=C1CCC(N2C(=O)c3cccc(NCc4cnn(C5CCN(C(=O)CC6CC6)CC5)c4)c3C2=O)C(=O)N1 (stereo not drawn) [Compound 26, 4-(((1-(1-(2-cyclopropylacetyl)piperidin-4-yl)-1H-pyrazol-4-yl)methyl)amino)-2-(2,6-dioxopiperidin-3-yl)isoindoline-1,3-dione]	< 100 nM
O=C1CCC(N2C(=O)c3cccc(NCc4cnn(C5CCN(C(=O)CC6CCCCC6)CC5)c4)c3C2=O)C(=O)N1 (stereo not drawn) [Compound 27, 4-(((1-(1-(2-cyclohexylacetyl)piperidin-4-yl)-1H-pyrazol-4-yl)methyl)amino)-2-(2,6-dioxopiperidin-3-yl)isoindoline-1,3-dione]	< 1 nM
O=C1CCC(N2C(=O)c3cccc(NCc4cnn(C5CCN(C(=O)CC6CCOCC6)CC5)c4)c3C2=O)C(=O)N1 (stereo not drawn) [Compound 28, 2-(2,6-dioxopiperidin-3-yl)-4-(((1-(1-(2-(tetrahydro-2H-pyrazin-4-yl)acetyl)piperidin-4-yl)-1H-pyrazol-4-yl)methyl)amino)isoindoline-1,3-dione]	< 100 nM
